The results in this text go back to ChEMBL document CHEMBL1129115, “The role of the C-4 side chain of kainate and dihydrokainate in EAA receptor and transporter selectivity” (Bioorg Med Chem Lett, 1996).

The Ki is a dissociation constant, usually derived from enzyme kinetics or from competition with a known ligand. Low values mean a stronger hold on the target, high ones a looser hold on the target.

In assay [1] the target is T1, Glutamate receptor ionotropic, AMPA (Rattus norvegicus, UniProt P19490+P19491+P19492+P19493). Nature of the assay: Compound was tested for the inhibition of [3H]AMPA radioligand binding to Ionotropic glutamate receptor AMPA in synaptic plasma membrane prepared from rat forebrain; very weak inhibition. The class given is cell membranes, Brain/Plasma.
Assay [2] addresses Glutamate receptor ionotropic, kainate. Nature of the assay: Compound was tested for the inhibition of [3H]kainate radioligand binding to Ionotropic glutamate receptor kainate in synaptic plasma membrane prepared from rat forebrain. The class given is cell membranes, Brain/Plasma.
Assay [3] concerns the target Glutamate NMDA receptor. Put plainly: Compound was tested for the inhibition of [3H]L-Glutamate radioligand binding to NMDA receptor in synaptic plasma membrane prepared from rat forebrain; very weak inhibition. The class given is cell membranes, Brain/Plasma.
The species named for assay [4] is Rattus norvegicus. Nature of the assay: Compound was tested for the inhibition of [3H]D-aspartate radioligand uptake into Synaptosomes in synaptic plasma membrane prepared from rat forebrain. The assay is classed as functional.
For assay [5], the target named is T1, Glutamate receptor ionotropic, AMPA. Put plainly: Compound was tested for the inhibition of [3H]AMPA radioligand binding to Ionotropic glutamate receptor AMPA in synaptic plasma membrane prepared from rat forebrain. The assay is classed as cell membranes, Brain/Plasma.
In assay [6] the target is Glutamate NMDA receptor. Put plainly: Compound was tested for the inhibition of [3H]L-Glutamate radioligand binding to NMDA receptor in synaptic plasma membrane prepared from rat forebrain. The assay is classed as cell membranes, Brain/Plasma.
The species entered for assay [7] is Rattus norvegicus. Nature of the assay: Compound was tested for the inhibition of [3H]D-aspartate radioligand uptake into Synaptosomes in synaptic plasma membrane prepared from rat forebrain; very weak inhibition. The assay is classed as functional, Brain/Plasma.

Where only a bound is given, the exact number is not on record here.

Take `CC(C)[C@H]1CN[C@H](C(=O)O)[C@H]1CC(=O)O` [DIHYDROKAINATE]: the inhibition constant Ki in assay [1] is above 500 µM; in assay [2] it was 16 µM; at Glutamate NMDA receptor [3] it was above 300 µM; in the assay filed under Rattus norvegicus [4], 30 µM.
Take `O=C(O)C[C@H]1CCN[C@@H]1C(=O)O` [TRANS-CPPA]: the inhibitory constant (Ki) in assay [5] is 106 µM; in assay [2], 1.6 µM; at Glutamate NMDA receptor [6], 0.5 µM; in the assay listed under Rattus norvegicus [7], above 250 µM.
